# Active and inactive are the calls of the source. The rule behind the calls is not given here.
# Tested on: FXN GAA850 promoter luciferase reporter, luminescence
# Experiment: expanded-repeat frataxin promoter luciferase activation – cell-based, luminescence, GAA850 repeat, dose response (AID 651792)
row,SMILES,EC50
1,Clc1ccc(-c2nnc(Nc3nc4cc5c(cc4s3)OCO5)o2)cc1,> 59.6 µM (inactive)
2,Cn1c(SCC(=O)NCC2CCCO2)ncc(C(=O)Nc2ccc(F)cc2)c1=O (configuration not stated),> 59.6 µM (inactive)
3,COc1ccccc1NC(=O)c1cnc(SCC(=O)Nc2ccc3c(c2)OCO3)n(C)c1=O,> 59.6 µM (inactive)
4,COc1ccc(-c2nnc(Nc3nc4c(OC)cccc4s3)o2)c(OC)c1,> 59.6 µM (inactive)
5,COc1cccc2sc(Nc3nnc(-c4ccccc4)o3)nc12,> 59.6 µM (inactive)
6,COc1ccc(-c2nnc(Nc3nc4c(OC)cccc4s3)o2)cc1,> 59.6 µM (inactive)
7,COc1ccccc1-c1nnc(Nc2nc3ccc(F)cc3s2)o1,> 59.6 µM (inactive)
8,COc1ccc(-c2nnc(Nc3nc4ccc(SC)cc4s3)o2)c(OC)c1,> 59.6 µM (inactive)
9,COc1ccccc1NC(=O)c1cnc(SCC(=O)NCC2CCCO2)n(C)c1=O (configuration not stated),> 59.6 µM (inactive)
10,Clc1ccccc1-c1nnc(Nc2nc3cc4c(cc3s2)OCO4)o1,> 59.6 µM (inactive)
11,CSc1ccc2nc(Nc3nnc(-c4ccc5c(c4)OCCO5)o3)sc2c1,> 59.6 µM (inactive)
12,COc1ccccc1CNC(=O)CSc1ncc(C(=O)Nc2ccccc2)c(=O)n1C,> 59.6 µM (inactive)
13,COc1ccc(-c2nnc(Nc3nc4ccc(F)cc4s3)o2)c(OC)c1,> 59.6 µM (inactive)
14,CSc1ccc2nc(Nc3nnc(-c4ccccc4Cl)o3)sc2c1,> 59.6 µM (inactive)
15,Fc1cccc2sc(Nc3nnc(-c4ccccc4Cl)o3)nc12,> 59.6 µM (inactive)
16,Cc1ccc(NC(=O)c2cnc(SCC(=O)Nc3cccc(C(F)(F)F)c3)n(C)c2=O)cc1C,> 59.6 µM (inactive)

row,SMILES,EC50
1,CCc1nnc(NC(=O)CSc2ncc(C(=O)Nc3ccc(C)c(C)c3)c(=O)n2C)s1,> 59.6 µM (inactive)
2,COc1ccc(-c2nnc(Nc3nc4ccc(OC)cc4s3)o2)c(OC)c1,> 59.6 µM (inactive)
3,COc1ccccc1-c1nnc(Nc2nc3c(OC)cccc3s2)o1,> 59.6 µM (inactive)
4,COc1cccc2sc(Nc3nnc(-c4ccc(F)cc4)o3)nc12,> 59.6 µM (inactive)
5,COc1ccc(-c2nnc(Nc3nc4cc(OC)ccc4s3)o2)c(OC)c1,> 59.6 µM (inactive)
6,Fc1ccc2nc(Nc3nnc(-c4ccccc4Cl)o3)sc2c1,> 59.6 µM (inactive)
7,COc1ccccc1NC(=O)c1cnc(SCC(=O)Nc2nc3ccccc3s2)n(C)c1=O,> 59.6 µM (inactive)
8,Fc1ccc(-c2nnc(Nc3nc4c(F)cccc4s3)o2)cc1,> 59.6 µM (inactive)
9,COc1ccccc1NC(=O)c1cnc(SCC(=O)NCc2ccccc2)n(C)c1=O,> 59.6 µM (inactive)
10,Cn1c(SCC(=O)NCC2CCCO2)ncc(C(=O)Nc2ccccc2)c1=O (configuration not stated),> 59.6 µM (inactive)
11,COc1ccccc1NC(=O)c1cnc(SCC(=O)NCCc2ccccc2)n(C)c1=O,> 59.6 µM (inactive)
12,COc1ccc(-c2nnc(Nc3nc4c(F)cccc4s3)o2)c(OC)c1,> 59.6 µM (inactive)
13,Cn1c(SCC(=O)NCC2CCCO2)ncc(C(=O)Nc2ccc(Cl)cc2)c1=O (configuration not stated),> 59.6 µM (inactive)
14,COc1ccccc1NC(=O)c1cnc(SCC(=O)Nc2cc(C)on2)n(C)c1=O,> 59.6 µM (inactive)
15,COc1cccc2sc(Nc3nnc(-c4ccccc4Cl)o3)nc12,> 59.6 µM (inactive)
16,COc1ccccc1NC(=O)c1cnc(SCC(=O)NCc2ccc3c(c2)OCO3)n(C)c1=O,> 59.6 µM (inactive)
